# Results reported in patent publication US20230113398A1, “INEXPENSIVE METAL-FREE ORGANIC REDOX FLOW BATTERY (ORBAT) FOR GRID-SCALE STORAGE” (UNIVERSITY OF SOUTHERN CALIFORNIA, priority 2013, published 2023).
# Values joined by “and” are separate entries in the source; they are usually repeats but may differ in a detail not shown here. Equal values may be shown once. Read-outs that look alike come from different tables or passages of the source.
# Legend:
# [1] = cited from earlier work
# [2] = Rotating disk electrode and cyclic voltammetry on glassy carbon, 1 mM compound in 1 M sulfuric acid; format: physicochemical; conditions: for Diffusion Coefficient, (cm^2 s^-1): Levich plot; for Transfer Coefficient, an: Tafel analysis; for Exchange Current Density, (A cm^-2): glassy carbon RDE; for Rate Constant, k°: obtained from exchange current density
# Procedure: Measurement of kinetic parameters and diffusion coefficients was conducted in a three-electrode cell consisting of a rotating glassy carbon disk working electrode, a platinum wire counter electrode, and a mercury/mercuric sulfate reference electrode (E° = +0.65 V). […] The solutions were de-aerated and kept under a blanket of argon gas throughout all the experiments. All measurements were conducted in the potentiodynamic mode (Versastat 300 potentiostat) at a scan rate of 5 mV s^-1 over a range of rotation rates (500 rpm to 3000 rpm). Impedance measurements were also made at each rotation rate. Cyclic voltammetry was conducted on a static glassy carbon electrode at a scan rate of 50 mV s^-1.
# (§1) Where n is the number of electrons transferred, F, the Faraday constant, A, electrode area, Do, the diffusion coefficient, v, the kinematic viscosity of the solution and C*, the bulk concentration of the reactants. For n = 2, an active electrode area of 0.1925 cm^2, and a kinematic viscosity of the electrolyte of 0.01 cm^2 s^-1, we were able to evalulate the diffusion coefficient from the slope of the straight line plots in FIG. 11D.
# (§2) To determine the kinetic parameters for the charge-transfer process, namely the rate constant and the apparent transfer coeffcient, the logarithm of the kinetic current (after correction for mass-transport losses) was plotted against the observed overpotentials greater than 100 mV, where the Tafel equation is applicable (Eq. 4 and FIG. 11E).
# (§3) Where I is the current, Ilim is the limiting current, Iex is the exchange current density, Co and CR are the concentration of the oxidized and reduced species at the surface of the electrode, Co* and CR* are the bulk concentrations of the oxidized and reduced species, α is the transfer coefficient, n is the number of electrons transferred, F is the Faraday constant, E-Erev is the overpotential, R is the gas constant, and T is the temperature. The rate constant, ko , was obtained from the exchange current density (Eq. 5).
# as §1, with “plots.” for “plots in FIG. 11D.”
# as §2, with “equation derived from the Butler-Volmer Equation” for “equation”, “: […]” for “(Eq. 4 and FIG. 11E).”
# as §3, with “using the relationship” for “(Eq. 5).”
# [3] = Cyclic voltammetry in mixed solvent (DMF/water); format: physicochemical; conditions: DMF/water (80% DMF/20%Water for TYLENOL)
# [4] = Solubility
# [5] = Properties of some common quinones (literature data, Conant and Fieser); format: physicochemical
# From the text: In a variation as set forth above, the flow battery utilizes a first quinone and a second quinone. Quinones are known to undergo fast electrochemical transformations which are necessary for sustaining high discharge and charge rates in a battery. The facility of electrochemical transformation is characterized by the kinetic parameter termed exchange current density. […] In general, useful quinones are highly soluble in water, chemically stable in strongly acidic/basic solutions, capable of high cell voltage of about 1 V, roundtrip efficiency >80%, and high discharge rate. By selecting a first quinone and a second quinone that are far apart in electrode potential, the cell voltage can be maximized to 1 V. Moreover, the electrode potentials can be modified favorably by substituent groups on the quinones as set forth below. Based on data provided in Table 1 and 2 (J.B. Conant and […]. Am. Chem.
# [6] = in water, 25° C; cited from earlier work
# [7] = Cyclic voltammetry in 1 M potassium hydroxide; format: physicochemical
# [8] = Table 5, MSE E°=+0.65 V, 1 M sulfuric acid
# [9] = Table 7, listed as Anthraquinone sulfonic acid
compound,measurement,setting,value
"O=C1C=CC(=O)C(O)=C1 [2-hydroxyl 1,4-benzoquinone]","Electrode Potential vs. NHE, V",[1],0.596 V
"O=C1c2ccccc2C(=O)c2c1cccc2S(=O)(=O)O [9,10-anthraquinone-1-sulfonic acid]","Electrode Potential vs. NHE, V",[1],0.183 V
"O=C1c2ccccc2C(=O)c2ccccc21 [9,10-anthraquinone, reference compound]",Standard Reduction Potentials: E°(formal) Measured,[2]; 1 M sulfuric acid,Insoluble
same,Standard Reduction Potentials: Experimental (E½ values) vs. NHE,[2]; 1 M sulfuric acid,Insoluble
same,"Electrode Potential vs. NHE, V",[1],0.157 V
"CC(=O)Nc1ccc(O)cc1 [TYLENOL®, reference compound]",reversibility of the electrochemistry,[3],DMF does not enhance the reversibility
Hydroquinone disulfonic acid,Diffusion Coefficient (cm2/sec),[2]; Table 7,3.80E-6 cm2/sec and 4.04E-6 cm2/sec
same,Exchange Current density (A/cm^2),[2]; Table 7,3.47E-6 A/cm^2
same,"Tafel Slope, mV/decade, dη/d(log I)",[2]; Table 7,123 mV/decade
same,"E½ vs. MSE, Volt","[2]; Table 7, 1 M sulfuric acid",0.45 Volt
same,solubility,[4]; Table 7,1000 mM
"O=C1c2ccccc2C(=O)c2cc(S(=O)(=O)O)ccc21 [Anthraquinone-2-sulfonic acid, anthraquinone-2-sulfonic acid]",Standard Reduction Potentials: E°(formal) Measured,[2]; 1 M sulfuric acid,0.15
same,"Diffusion Coefficient, (cm^2 s^-1)","[2]; Table 5, 1 M sulfuric acid",3.71E-6 cm^2 s^-1
same,"E½ vs. MSE, Volt",[2]; [8],-0.52 Volt
same,"Transfer Coefficient, an",[2]; Table 5,0.677
same,"Exchange Current Density, (A cm^-2)","[2]; Table 5, 1 M sulfuric acid",1.96E-5 A cm^-2
same,"Rate Constant, k°",[2]; Table 5,0.000225 cm/s
same,Diffusion Coefficient (cm2/sec),[2]; Table 7,3.35E-6 cm2/sec
same,Exchange Current density (A/cm^2),[2]; Table 7,1.95E-5 A/cm^2
same,"E½ vs. MSE, Volt","[2]; Table 7, 1 M sulfuric acid",-0.52 Volt
same,Diffusion Coefficient (cm2/sec),[2]; [9],3.18E-6 cm2/sec and 3.35E-6 cm2/sec
same,Exchange Current density (A/cm^2),[2]; [9],1.95E-5 A/cm^2 and 2.91E-5 A/cm^2
same,Standard Reduction Potentials: Experimental (E½ values) vs. NHE,[2]; 1 M sulfuric acid,0.13
same,reversibility of the electrochemistry,[3],reversible
same,solubility,"[4]; DMF/water, aqueous with cosolvent or surfactant or cyclodextrin, solubility in DMF/water",700 mM
same,solubility,"[4]; Solubility, Table 5",200 mM
same,solubility,"[4]; Solubility, Table 7",200 mM
same,solubility,"[4]; water, aqueous solubility limit, aqueous",200 mM
"O=C1C=CC(=O)C=C1 [1,4-benzoquinone (para), 1,4-benzoquinone]","Electrode Potential vs. NHE, V",[1],0.700 V
"O=C1c2cccc(S(=O)(=O)O)c2C(=O)c2c1cccc2S(=O)(=O)O [1,8 Anthraquinone disulfonic acid]",Diffusion Coefficient (cm2/sec),[2]; Table 7,3.39E-6 cm2/sec
same,Exchange Current density (A/cm^2),[2]; Table 7,1.60E-6 A/cm^2
same,"E½ vs. MSE, Volt","[2]; Table 7, 1 M sulfuric acid",-0.70 Volt
"O=C1c2ccc(S(=O)(=O)O)cc2C(=O)c2cc(S(=O)(=O)O)ccc21 [2,7 Anthraquinone disulfonic acid]",Diffusion Coefficient (cm2/sec),[2]; Table 7,1.82E-6 cm2/sec
same,Exchange Current density (A/cm^2),[2]; Table 7,7.82E-7 A/cm^2
same,"E½ vs. MSE, Volt","[2]; Table 7, 1 M sulfuric acid",-0.57 Volt
"O=C1C(=O)C(Cl)=C(Cl)C(Cl)=C1Cl [Tetrachloro-1,2-benzoquinone]","Electrode Potential vs. NHE, V",[1],0.823 V
"O=C1C=C(S(=O)(=O)O)C(=O)c2ccccc21 [1,4-naphthaquinone-2-sulfonic acid]","Electrode Potential vs. NHE, V",[1],0.534 V
Oc1ccc(O)cc1 [Hydroquinone],Standard Reduction Potentials: E°(formal) Measured,[2]; 1 M sulfuric acid,0.68
same,"Diffusion Coefficient, (cm^2 s^-1)","[2]; Table 5, 1 M sulfuric acid",5.03E-6 cm^2 s^-1
same,"E½ vs. MSE, Volt",[2]; [8],0.02 Volt
same,"Transfer Coefficient, an",[2]; Table 5,0.508
same,"Exchange Current Density, (A cm^-2)","[2]; Table 5, 1 M sulfuric acid",5.09E-5 A cm^-2
same,"Rate Constant, k°",[2]; Table 5,0.00236 cm/s
same,Diffusion Coefficient (cm2/sec),[2]; Table 7,5.03E-6 cm2/sec and 5.4E-6 cm2/sec
same,Exchange Current density (A/cm^2),[2]; Table 7,9.17E-5 A/cm^2
same,"Tafel Slope, mV/decade, dη/d(log I)",[2]; Table 7,110 mV/decade
same,"E½ vs. MSE, Volt","[2]; Table 7, 1 M sulfuric acid",0.02 Volt
same,Standard Reduction Potentials: Experimental (E½ values) vs. NHE,[2]; 1 M sulfuric acid,0.67
same,solubility,"[4]; Solubility, Table 5",530 mM
same,solubility,"[4]; Solubility, Table 7",530 mM
"O=C1C=C(S(=O)(=O)O)C=C(S(=O)(=O)O)C1=O [1,2-benzoquinone-3,5-disulfonic acid, 1,2-benzoquinone-3,5-disulfonic acid]",Standard Reduction Potentials: E°(formal) Measured,[2]; 1 M sulfuric acid,0.87
same,kinetic reversibility from cyclic voltammograms,"[2]; 1 M sulfuric acid, glassy carbon","rapid oxidation step, but a slower reduction step"
same,"Diffusion Coefficient, (cm^2 s^-1)","[2]; Table 5, 1 M sulfuric acid",3.80E-6 cm^2 s^-1
same,"E½ vs. MSE, Volt",[2]; [8],0.45 Volt
same,"Transfer Coefficient, an",[2]; Table 5,0.582
same,"Exchange Current Density, (A cm^-2)","[2]; Table 5, 1 M sulfuric acid",3.00E-6 A cm^-2
same,"Rate Constant, k°",[2]; Table 5,0.000155 cm/s
same,Standard Reduction Potentials: Experimental (E½ values) vs. NHE,[2]; 1 M sulfuric acid,1.1
same,solubility,"[4]; Solubility, Table 5",1000 mM
"O=C1C=CC=CC1=O [1,2-benzoquinone (ortho), 1,2-benzoquinone]","electrode potential higher relative to 1,4-benzoquinone (para-quinone)",[5],approximately 85 mV
same,"Electrode Potential vs. NHE, V",[1],0.786 V
O=C1C=CC(=O)C=C1 [benzoquinone],solubility,[6],100 mM
O=S(=O)(O)c1cc(O)ccc1O [Hydroquinone sulfonic acid],Standard Reduction Potentials: E°(formal) Measured,[2]; 1 M sulfuric acid,0.70
same,"Diffusion Coefficient, (cm^2 s^-1)","[2]; Table 5, 1 M sulfuric acid",4.28E-6 cm^2 s^-1
same,"E½ vs. MSE, Volt",[2]; [8],0.17 Volt
same,"Transfer Coefficient, an",[2]; Table 5,0.418
same,"Exchange Current Density, (A cm^-2)","[2]; Table 5, 1 M sulfuric acid",1.10E-5 A cm^-2
same,"Rate Constant, k°",[2]; Table 5,0.000552 cm/s
same,Diffusion Coefficient (cm2/sec),[2]; Table 7,4.28E-6 cm2/sec
same,Exchange Current density (A/cm^2),[2]; Table 7,2.59E-5 A/cm^2
same,"Tafel Slope, mV/decade, dη/d(log I)",[2]; Table 7,63 mV/decade
same,"E½ vs. MSE, Volt","[2]; Table 7, 1 M sulfuric acid",0.17 Volt
same,Standard Reduction Potentials: Experimental (E½ values) vs. NHE,[2]; 1 M sulfuric acid,0.82
same,solubility,"[4]; Solubility, Table 5",800 mM
same,solubility,"[4]; Solubility, Table 7",800 mM
"O=C1c2ccccc2C(=O)c2c(O)cccc21 [1-hydroxy-9,10-anthraquinone]","Electrode Potential vs. NHE, V",[1],0.131 V
"O=C1c2cccc(O)c2C(=O)c2c(O)cccc21 [1,8-dihydroxy anthraquinone, 1,8-dihydroxy anthraquinone]",reversible peak potential vs. MMO,[7],approximately -0.60 V
c1ccc2nccnc2c1 [Quinoxaline],Diffusion Coefficient (cm2/sec),[2]; Table 7,1.36E-6 cm2/sec and 1.09E-6 cm2/sec
same,solubility,"[4]; Solubility, Table 7",> 7000 mM
"O=C1C=CC(=O)c2ccccc21 [1,4-naphthaquinone]","Electrode Potential vs. NHE, V",[1],0.483 V
"O=C1C=C(O)C(=O)c2ccccc21 [2-hydroxy-1,4-naphthaquinone]","Electrode Potential vs. NHE, V",[1],0.357 V
O=C1C=C(S(=O)(=O)O)C=C(S(=O)(=O)O)C1=O [benzoquinone disulfonic acid],solubility,[6],1700 mM
Maleic hydrazide,Diffusion Coefficient (cm2/sec),[2]; Table 7,6.57E-6 cm2/sec
same,Exchange Current density (A/cm^2),[2]; Table 7,5.86E-6 A/cm^2
same,"Tafel Slope, mV/decade, dη/d(log I)",[2]; Table 7,54 mV/decade
same,"E½ vs. MSE, Volt","[2]; Table 7, 1 M sulfuric acid",0.6 Volt
anthraquinone-2-sulfonic acid salt,reversible peak potential vs. MMO,[7],about -0.4 V
O=c1[nH][nH]c(=O)c2ccccc12 [Phthalyl hydrazide],Diffusion Coefficient (cm2/sec),[2]; Table 7,1.07E-6 cm2/sec
same,Exchange Current density (A/cm^2),[2]; Table 7,3.03E-6 A/cm^2
same,"Tafel Slope, mV/decade, dη/d(log I)",[2]; Table 7,40 mV/decade
same,"E½ vs. MSE, Volt","[2]; Table 7, 1 M sulfuric acid",0.5 Volt
